Test results as given in paper doi:10.1101/203372v2 (biorxiv, 2017).

Molecular target: T1, GST-HDAC6, human, recombinant (recombinant HDAC6 WT) (Homo sapiens, UniProt Q9UBN7)
T1 sequence (Q9UBN7 1-1215): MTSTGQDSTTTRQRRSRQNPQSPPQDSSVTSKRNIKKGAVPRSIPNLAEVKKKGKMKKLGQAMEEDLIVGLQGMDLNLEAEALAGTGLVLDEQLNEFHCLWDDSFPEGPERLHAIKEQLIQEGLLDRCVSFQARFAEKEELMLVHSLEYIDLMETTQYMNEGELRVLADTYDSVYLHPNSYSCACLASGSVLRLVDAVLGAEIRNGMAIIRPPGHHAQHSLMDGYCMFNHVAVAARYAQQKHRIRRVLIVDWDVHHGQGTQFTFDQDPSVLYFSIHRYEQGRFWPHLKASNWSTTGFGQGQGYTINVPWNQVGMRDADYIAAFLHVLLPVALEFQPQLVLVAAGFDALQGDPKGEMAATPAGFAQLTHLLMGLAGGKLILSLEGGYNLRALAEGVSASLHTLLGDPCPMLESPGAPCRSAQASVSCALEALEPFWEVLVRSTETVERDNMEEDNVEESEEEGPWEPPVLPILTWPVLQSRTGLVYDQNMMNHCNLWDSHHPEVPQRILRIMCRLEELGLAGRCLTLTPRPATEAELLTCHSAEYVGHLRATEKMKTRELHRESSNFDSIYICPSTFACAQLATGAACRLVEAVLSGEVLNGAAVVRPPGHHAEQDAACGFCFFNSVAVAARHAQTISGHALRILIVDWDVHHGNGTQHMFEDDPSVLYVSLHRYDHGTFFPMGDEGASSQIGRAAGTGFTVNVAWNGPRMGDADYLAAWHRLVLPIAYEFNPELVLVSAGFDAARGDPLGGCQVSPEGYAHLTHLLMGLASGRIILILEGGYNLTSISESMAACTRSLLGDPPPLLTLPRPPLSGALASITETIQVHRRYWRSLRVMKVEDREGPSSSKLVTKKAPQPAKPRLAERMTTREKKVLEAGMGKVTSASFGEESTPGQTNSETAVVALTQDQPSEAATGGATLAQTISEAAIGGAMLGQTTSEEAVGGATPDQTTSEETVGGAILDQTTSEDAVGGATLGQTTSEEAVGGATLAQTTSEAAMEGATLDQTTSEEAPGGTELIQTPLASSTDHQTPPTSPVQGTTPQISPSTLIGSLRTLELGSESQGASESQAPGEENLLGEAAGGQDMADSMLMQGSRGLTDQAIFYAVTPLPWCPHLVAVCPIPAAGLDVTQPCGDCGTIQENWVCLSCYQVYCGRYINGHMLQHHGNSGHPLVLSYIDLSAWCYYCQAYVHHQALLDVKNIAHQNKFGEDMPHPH
Assay: ELISA PPI competition, HDAC6 binding to immobilised His6-ubiquitin

IC50: 78 µM
Compound: Cc1ccccc1OCCCn1cc(C=C2C(=N)N3N=CSC3=NC2=O)c2ccccc21 [compound 16]
